The text below walks through data of ChEMBL document CHEMBL1123292, “Synthesis and antimitogenic activities of four analogues of cyclosporin A modified in the 1-position” (J Med Chem, 1986).

Broadly, the IC50 is the midpoint of a concentration-inhibition curve. A low value points to inhibition by little substance.

Test [1] can be described thus: inhibitory concentration against Con A stimulated thymocytes. The class given is functional.
Test [2] is described as follows: Inhibitory concentration against Con A stimulated thymocytes. The class given is functional.

The structures appear in SMILES notation.

For `CC[C@@H]1NC(=O)[C@H]([C@@H](C)O)N(C)C(=O)[C@H](C(C)C)N(C)C(=O)[C@H](CC(C)C)N(C)C(=O)[C@H](CC(C)C)N(C)C(=O)[C@@H](C)NC(=O)[C@H](C)NC(=O)[C@H](CC(C)C)N(C)C(=O)[C@H](C(C)C)NC(=O)[C@H](CC(C)C)N(C)C(=O)CN(C)C1=O`, half-maximal inhibition in test [1] (IC50) was put at 8 µM.
Turning to `CC[C@@H]1NC(=O)[C@H](CC)N(C)C(=O)[C@H](C(C)C)N(C)C(=O)[C@H](CC(C)C)N(C)C(=O)[C@H](CC(C)C)N(C)C(=O)[C@@H](C)NC(=O)[C@H](C)NC(=O)[C@H](CC(C)C)N(C)C(=O)[C@H](C(C)C)NC(=O)[C@H](CC(C)C)N(C)C(=O)CN(C)C1=O`, inhibition in test [2] was half-maximal at 15 µM (IC50). This counts as double-digit micromolar.
Turning to `CCCCC(C)[C@@H](O)[C@H]1C(=O)N[C@@H](CC)C(=O)N(C)CC(=O)N(C)[C@@H](CC(C)C)C(=O)N[C@@H](C(C)C)C(=O)N(C)[C@@H](CC(C)C)C(=O)N[C@@H](C)C(=O)N[C@H](C)C(=O)N(C)[C@@H](CC(C)C)C(=O)N(C)[C@@H](CC(C)C)C(=O)N(C)[C@@H](C(C)C)C(=O)N1C` (some centres undefined), half-maximal inhibition in test [2] (IC50) was put at 0.01 µM.
Same read-out and setting: the same measure for `CC[C@@H]1NC(=O)[C@H]([C@H](O)C(C)C)N(C)C(=O)[C@H](C(C)C)N(C)C(=O)[C@H](CC(C)C)N(C)C(=O)[C@H](CC(C)C)N(C)C(=O)[C@@H](C)NC(=O)[C@H](C)NC(=O)[C@H](CC(C)C)N(C)C(=O)[C@H](C(C)C)NC(=O)[C@H](CC(C)C)N(C)C(=O)CN(C)C1=O`: 0.6 µM.
